Test results as given in patent US11406649B2, “Treatment of upper aerodigestive tract disorders and cough” (IVIEW THERAPEUTICS, INC., priority 2018, dated 2022).
Entries after “also recorded” stand apart in the source; their conditions may differ.

How the values were obtained:
[1] = tested on: capsaicin induced coughing; test: Capsaicin induced coughing in an animal model; conditions: in vivo
[2] = molecular target: TRPV1 channels (human TRPV1 gene expressed in HEK293 cells) (Homo sapiens (Human), UniProt Q8NER1); test: Selectivity on TRPV1 channels; format: cell-based; conditions: positive control capsaicin
Source text: (§1) In a third set, the selectivity of the test compounds on TRPM8, TRPV1 channels (human TRPV1 gene expressed in HEK293 cells) and TRPA1 channels (human TRPA1 gene expressed in CHO cells) were examined.
(§2) The selectivity of DIPA-1-9 on TRP channel receptors, TRPM8, TRPA1 and TRPV1 is shown in FIG. 3 of Yang et. al. A novel TRPM8 agonist relieves dry eye discomfort. BMC Ophthalmology ([…]) 17: 101, and incorporated herein by reference. The applicant is a co-author of this publication.

[3] = tested on: anesthetized rat; test: In vivo transdermal activity: shaking after topical application to abdominal skin of anesthetized rat; conditions: pure compound 20 μL on abdominal skin, counted 40 min
Method: Shaking frequency was counted for 40 min after topical application.
The importance of water solubility for permeation was further illustrated in studies on the abdominal skin of anesthetized rat. […] The pharmacokinetic determinants of bioactivity are precise. Thus, for the avoidance of cold discomfort, DIPA-1-9 has to reach the receptors in the stratum basale but not “over-stimulate”.

[4] = tested on: rat skin; test: Skin irritation tests on rat skin; format: in vivo; parameters: key to Redness after 20 μL applied topically to skin (scale of 0 to +++): scale of 0 to +++; scale of 0 to +++; scale of 0 to +++; scale of 0 to +++
[5] = tested on: respiratory syncytial virus (RSV) induced cough; test: Mouse cough model of respiratory syncytial virus infection; format: in vivo; conditions: 0.5 mg in 25 μL intranasally per mouse, 10 min before count
[6] = tested on: oropharynx and esophagus; test: Sensory events and cold discomfort of compounds on throat, chest and body; conditions: for taste: oral cavity / tongue
Source text: The terms “icy cold” is used to describe this adverse event in the throat.
Most likely, the compound rapidly distributed and activated cold sensations in the eosophageal lining.

[7] = tested on: upper aerodigestive tract discomfort; test: Case studies of DIPA-1-9 syrup in volunteers with upper aerodigestive tract discomfort; format: in vivo, human
Source text: The rationale and data set for selecting DIPA-1-9 in syrup as a treatment agent for upper aerodigestive discomfort have been described. […] The coolness spreads to the rest of throat and intensifies, as if a spoonful of rich ice cream had been swallowed. […] The cooling sensation can be used to facilitate mucus expectoration from the airways. Also relieved is the sense of suffocation when lying down to sleep in a subject that has dyspnea.

[8] = tested on: anesthetized rat; test: Blood pressure and heart rate after subcutaneous injection in anesthetized rat; format: in vivo; conditions: injected subcutaneously
[9] = molecular target: TRPA1 channels (human TRPA1 gene expressed in CHO cells) (Homo sapiens (Human), UniProt O75762); test: Selectivity on TRPA1 channels; format: cell-based; conditions: positive control mustard oil
Source text: as §1, §2

[10] = molecular target: cloned hTRPM8 channel (Homo sapiens (Human), UniProt Q7Z2W7); test: TRPM8 agonist activity, Fluo-8 calcium FLIPR assay (ChanTest); format: cell-based; conditions: L-menthol = 1.0
Method: In the first set of data, the potency and in vitro effects of test compounds were evaluated on cloned hTRPM8 channel (encoded by the human TRPM8 gene, expressed in CHO cells) using a Fluo-8 calcium kit and a Fluorescence Imaging Plate Reader (FLIPR^TETRA™) instrument. […] Test solutions were in a HEPES-buffered saline, in 384-well plates, and placed into the FLIPR instrument (Molecular Devices Corporation, Union City, Calif., USA). […] The test cells were Chinese Hamster Ovary (CHO) cells stably transfected with human TRPM8 cDNAs. Concentration-response data were analyzed via FLIPR Control software) and fitted to a Hill equation for the EC50.

[11] = tested on: Oral Cavity and Pharynx; test: Sensory qualities of compounds in syrup applied to base of tongue of volunteers; format: in vivo, human; conditions: concentration increased to 15 mg/mL, 0.8 mL per dose
[12] = tested on: eyelids of patients with dry eye disorder; test: Application to eyelids of patients with dry eye disorder; format: in vivo, human
[13] = Water solubility of 1-dialkylphosphorylalkanes; format: physicochemical
Source text: The DIPA compounds are colorless liquids with a density less than water. These structures differ from those described by Rowsell and Spring U.S. Pat. No. 4,070,496 because '496 structures have their “head” (phosphine oxide group) covered by larger, more lipophilic groups. […] The applicant synthesized these analogs (which are achiral, by contrast to the structures of '496 which are >95% chiral). […] This increased water-solublility is striking (Table 3). […] The DIPA analogs are now mobile in the extracellular fluids and permeate between cells to access nerve endings in the stratum basale.

[14] = tested on: oral cavity; test: DIPA-1-9 sprayed into the mouth with aerosol sprayer
[15] = tested on: Oral Cavity and Pharynx; test: Sensory qualities of compounds in syrup applied to base of tongue of volunteers; format: in vivo, human
Method: The DIPA compounds was 5 mg/mL in cherry-flavored syrup in a volume of 0.8 mL per dose. The sensory effect were recorded every 5 min for 1 hr.
Tests were on four volunteers, with 3 to 5 trials per substance. Compounds were prepared in cherry-flavored syrup at 5 mg/mL and administered ˜0.8 mL per dose with a 2 mL plastic vial to the base of the tongue. The subjects asked to rate the sensations for cooling intensity, cold discomfort and adverse taste.
The concentration of the DIPA compounds was 5 mg/mL in cherry-flavored syrup administered in a volume of 0.8 mL per dose. The sensory effect were recorded every 5 min for 1 hr.

[16] = 10 subjects with cough, sprayer 5 mg/mL cherry syrup, 1 week
[17] = 5 mg/mL in cherry-flavored syrup, ~0.8 mL

Chain of TRPA1 channels (human TRPA1 gene expressed in CHO cells) (O75762 whole entry): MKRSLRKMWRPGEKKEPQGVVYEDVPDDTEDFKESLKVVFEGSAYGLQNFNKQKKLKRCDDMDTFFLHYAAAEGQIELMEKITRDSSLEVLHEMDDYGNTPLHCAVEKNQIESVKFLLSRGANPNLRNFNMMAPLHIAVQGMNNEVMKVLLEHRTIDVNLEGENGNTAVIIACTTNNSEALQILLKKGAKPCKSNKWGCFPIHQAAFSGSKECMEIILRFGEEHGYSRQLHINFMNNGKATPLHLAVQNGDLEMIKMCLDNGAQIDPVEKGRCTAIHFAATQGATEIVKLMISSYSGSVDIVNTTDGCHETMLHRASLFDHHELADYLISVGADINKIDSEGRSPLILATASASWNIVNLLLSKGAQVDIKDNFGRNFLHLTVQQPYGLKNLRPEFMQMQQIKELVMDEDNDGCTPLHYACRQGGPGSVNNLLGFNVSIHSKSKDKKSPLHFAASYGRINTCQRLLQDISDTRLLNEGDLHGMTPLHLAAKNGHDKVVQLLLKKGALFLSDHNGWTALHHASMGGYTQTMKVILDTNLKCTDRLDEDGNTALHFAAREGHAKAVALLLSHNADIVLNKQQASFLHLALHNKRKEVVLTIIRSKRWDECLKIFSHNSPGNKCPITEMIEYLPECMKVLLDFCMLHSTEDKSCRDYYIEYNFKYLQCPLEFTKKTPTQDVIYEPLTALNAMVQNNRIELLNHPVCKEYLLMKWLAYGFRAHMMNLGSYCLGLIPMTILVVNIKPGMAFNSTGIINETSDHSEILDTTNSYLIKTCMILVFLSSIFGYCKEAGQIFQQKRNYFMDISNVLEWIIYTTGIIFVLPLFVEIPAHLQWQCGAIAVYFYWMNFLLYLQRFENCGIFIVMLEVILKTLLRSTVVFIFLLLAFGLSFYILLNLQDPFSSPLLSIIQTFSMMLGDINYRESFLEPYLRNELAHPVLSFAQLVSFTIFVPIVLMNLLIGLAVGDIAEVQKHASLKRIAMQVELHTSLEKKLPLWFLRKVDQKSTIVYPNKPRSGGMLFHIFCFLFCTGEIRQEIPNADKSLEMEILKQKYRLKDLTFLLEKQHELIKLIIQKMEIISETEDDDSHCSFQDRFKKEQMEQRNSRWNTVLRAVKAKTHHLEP
Chain of TRPV1 channels (human TRPV1 gene expressed in HEK293 cells) (Q8NER1 whole entry): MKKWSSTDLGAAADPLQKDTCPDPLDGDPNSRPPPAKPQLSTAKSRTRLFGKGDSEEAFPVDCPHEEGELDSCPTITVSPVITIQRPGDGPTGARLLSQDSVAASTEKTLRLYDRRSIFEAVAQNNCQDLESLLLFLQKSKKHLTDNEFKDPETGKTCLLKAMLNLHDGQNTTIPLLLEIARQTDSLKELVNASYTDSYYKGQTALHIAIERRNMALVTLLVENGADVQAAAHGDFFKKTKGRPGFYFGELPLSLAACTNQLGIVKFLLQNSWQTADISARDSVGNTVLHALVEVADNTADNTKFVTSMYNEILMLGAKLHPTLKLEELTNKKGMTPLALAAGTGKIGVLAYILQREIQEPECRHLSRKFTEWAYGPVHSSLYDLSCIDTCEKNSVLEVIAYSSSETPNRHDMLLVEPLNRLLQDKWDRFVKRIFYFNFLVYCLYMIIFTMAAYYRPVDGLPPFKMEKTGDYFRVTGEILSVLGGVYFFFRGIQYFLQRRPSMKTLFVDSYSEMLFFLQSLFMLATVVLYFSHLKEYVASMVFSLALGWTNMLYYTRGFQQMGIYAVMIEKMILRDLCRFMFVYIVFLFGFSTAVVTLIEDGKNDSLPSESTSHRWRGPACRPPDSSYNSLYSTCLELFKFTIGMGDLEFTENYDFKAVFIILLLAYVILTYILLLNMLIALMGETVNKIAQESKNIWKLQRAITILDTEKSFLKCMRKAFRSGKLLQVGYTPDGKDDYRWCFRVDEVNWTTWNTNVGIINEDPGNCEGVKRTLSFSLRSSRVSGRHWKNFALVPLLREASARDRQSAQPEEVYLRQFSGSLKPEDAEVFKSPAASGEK
Chain of cloned hTRPM8 channel (Q7Z2W7 whole entry): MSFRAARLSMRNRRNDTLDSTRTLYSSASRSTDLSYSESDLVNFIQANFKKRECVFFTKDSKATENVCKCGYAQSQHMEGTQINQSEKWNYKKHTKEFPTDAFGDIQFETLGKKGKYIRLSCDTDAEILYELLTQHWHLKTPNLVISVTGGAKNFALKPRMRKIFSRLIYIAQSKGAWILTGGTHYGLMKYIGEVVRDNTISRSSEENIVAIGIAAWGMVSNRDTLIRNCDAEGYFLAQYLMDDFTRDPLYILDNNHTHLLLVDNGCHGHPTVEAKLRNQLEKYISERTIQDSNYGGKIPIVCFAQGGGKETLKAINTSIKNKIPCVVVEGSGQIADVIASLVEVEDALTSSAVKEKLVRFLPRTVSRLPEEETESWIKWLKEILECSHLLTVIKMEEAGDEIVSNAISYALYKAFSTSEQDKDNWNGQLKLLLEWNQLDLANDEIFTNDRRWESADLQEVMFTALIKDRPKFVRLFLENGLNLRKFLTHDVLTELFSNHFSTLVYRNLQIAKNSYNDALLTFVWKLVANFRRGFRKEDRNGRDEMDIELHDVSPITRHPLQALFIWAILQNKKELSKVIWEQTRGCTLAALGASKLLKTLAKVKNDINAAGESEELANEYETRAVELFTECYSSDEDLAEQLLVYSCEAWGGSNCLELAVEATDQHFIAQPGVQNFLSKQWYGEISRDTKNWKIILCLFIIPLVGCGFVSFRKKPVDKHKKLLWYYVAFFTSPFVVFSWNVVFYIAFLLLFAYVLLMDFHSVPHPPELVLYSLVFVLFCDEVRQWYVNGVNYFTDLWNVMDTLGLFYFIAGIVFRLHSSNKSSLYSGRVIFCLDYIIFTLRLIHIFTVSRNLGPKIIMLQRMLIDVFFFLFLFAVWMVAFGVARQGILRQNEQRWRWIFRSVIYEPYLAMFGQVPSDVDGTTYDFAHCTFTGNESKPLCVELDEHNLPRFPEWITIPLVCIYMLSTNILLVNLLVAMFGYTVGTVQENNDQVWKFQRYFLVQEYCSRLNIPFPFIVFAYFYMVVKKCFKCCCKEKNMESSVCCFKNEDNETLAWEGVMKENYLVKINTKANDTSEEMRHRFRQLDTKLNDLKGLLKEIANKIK

SMILES: CCCCCCCCCP(=O)(C(C)C)C(C)C [DIPA-1-9, 1-Di(isopropyl)-phosphinoyl-nonane]
- capsaicin induced coughing [1]: inhibited capsaicin induced coughing
- activity on TRPV1 (selectivity) [2]: selective for TRPM8 and not TRPVI and TRPA1; also recorded: not on TRPV1 or TRPA1 receptors
- shaking after topical application [3]: not active
- inflammatory response ([4]; pure compound, 20 μL, abdominal skin of anesthetized rat): did not cause significant inflammatory response
- Redness after 20 μL applied topically to skin (scale of 0 to +++) ([4]; rat skin, 20 μL): 0
- irritation of shaved rat skin ([4]; up to 20 mg/mL): not to be irritating
- cough frequency [5]: significantly inhibited cough frequency
- icy cold / pain in throat ([6]; DIPA-1-9 up to 12 mg per unit): not seen; also recorded: did not produce stinging
- taste [6]: did not have significant adverse taste
- taste ([6]; listed as DIPA1-9): does not have a strong metallic taste
- discomfort of satiety ([7]; 8 mg/mL in simple syrup, three over-weight individuals): instantly relieved
- chronic cough outcome (cough variant asthma cases) ([7]; 8 mg/mL in syrup, 1 mL vials as needed): the coughing problem had disappeared; also recorded: the cough was gone
- subjects reporting not effective [7, 16]: 3
- subjects reporting partially effective [7, 16]: 4
- subjects reporting very effective [7, 16]: 3
- residual antinociceptive effect duration ([7]; application to the throat): 3 h
- time to decrease in cough frequency ([7]; person, 8 mg/mL in cherry-flavored syrup): ≤ 3 days
- effect on blood pressure or heart rate [8]: did not affect blood pressure or heart rate
- activity on TRPA1 (selectivity) [9]: selective for TRPM8 and not TRPVI and TRPA1; also recorded: not on TRPV1 or TRPA1 receptors
- Relative Potency to L-menthol [10]: 4.0
- pain or discomfort at increased concentration [11]: did not produce icy cold or pain
- irritation of eyelids [12]: not to be irritating
- water solubility relative to prior art / di-sec-butyl or mixed isopropyl-sec-butyl analogs [13]: 10 ×
- solubility ([13]; water): > 300 mg/mL
- taste ([14]; 10 mg/mL spray): slight taste of bitterness
- persistence of sensation of cooling ([14]; 10 mg/mL spray, contents spat out): ≥ 1 h
- cooling of oral cavity ([14]; 10 mg/mL, 0.07 mL per activation, 3 activations): robust cooling of the oral cavity
- Adverse Taste [15, 17]: 0
- Discomfort [15, 17]: 0
- Sensation [15, 17]: cool
- persistence of general sense of refreshment in the throat ([15]; human, in vivo): ≥ 3 h
